Source: US7465741B2, “C-substituted tricyclic isoxazoline derivatives and their use as anti-depressants” (Janssen Pharmaceutica N.V., priority 2002, dated 2008)

Legend:
[1] = target: T1, hα2C receptor (Homo sapiens, UniProt P18825); assay: Radioligand binding experiment for hα2C receptor ([3H]-raulwolscine, CHO cell membranes); conditions: [3H]-raulwolscine 1 nM, membranes of CHO cells transfected with human α2C receptor; read-out: pIC50 hα2C (converted)
T1 construct: expressed in transfected cells; host or cells: CHO cells
T1 sequence (P18825 1-462): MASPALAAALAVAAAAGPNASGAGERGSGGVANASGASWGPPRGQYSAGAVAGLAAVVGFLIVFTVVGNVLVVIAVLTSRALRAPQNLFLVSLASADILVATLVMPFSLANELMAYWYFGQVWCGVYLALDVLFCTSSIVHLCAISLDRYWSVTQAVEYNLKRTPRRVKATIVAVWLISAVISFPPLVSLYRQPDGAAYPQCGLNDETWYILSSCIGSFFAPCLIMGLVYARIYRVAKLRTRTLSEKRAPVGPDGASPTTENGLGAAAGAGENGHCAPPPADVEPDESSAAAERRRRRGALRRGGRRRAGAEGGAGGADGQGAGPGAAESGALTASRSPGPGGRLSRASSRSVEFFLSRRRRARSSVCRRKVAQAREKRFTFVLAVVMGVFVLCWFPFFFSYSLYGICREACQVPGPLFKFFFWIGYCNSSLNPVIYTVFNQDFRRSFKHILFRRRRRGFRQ
Procedure: (§1) The interaction of the compounds according to Formula (I) with hα2-receptors and h5-HT-transporters was assessed in in vitro radioligand binding experiments. In general, a low concentration of a radioligand with a high binding affinity for a particular receptor or transporter is incubated with a sample of a tissue preparation enriched in a particular receptor or transporter or with a preparation of cells expressing cloned human receptors in a buffered medium. During the incubation, the radioligand binds to the receptor or transporter. When equilibrium of binding is reached, the receptor bound radioactivity is separated from the non-bound radioactivity, and the receptor- or transporter-bound activity is counted. The interaction of the test compounds with the receptor is assessed in competition binding experiments. Various concentrations of the test compound are added to the incubation mixture containing the receptor- or transporter preparation and the radioligand. The test compound in proportion to its binding affinity and its concentration inhibits binding of the radioligand. The radioligand used for hα2A, hα2B and hα2C receptor binding was [^3H]-raulwolscine and for the h5-HT transporter was [^3H]paroxetine.
(§2) CHO cells, stabile transfected with human adrenergic-α2A-, —α2B or α2C receptor cDNA, were cultured in Dulbecco's Modified Eagle's Medium (DMEM)/Nutrient mixture Ham's F12 (ratio 1:1)(Gibco, Gent-Belgium) supplemented with 10% heat inactivated fetal calf serum (Life Technologies, Merelbeke-Belgium) and antibiotics (100 IU/ml penicillin G, 100 μg/ml streptomycin sulphate, 110 μg/ml pyruvic acid and 100 μg/ml L-glutamine). One day before collection, cells were induced with 5 mM sodiumbutyrate. Upon 80-90% of confluence, cells were scraped in phosphate buffered saline without Ca^2+ and Mg^2+ and collected by centrifugation at 1500×g for 10 min. The cells were homogenised in Tris-HCl 50 mM using an Ultraturrax homogenizer and centrifuged for 10 min at 23,500×g. The pellet was washed once by resuspension and rehomogenization and the final pellet was resuspended in Tris-HCl, divided in 1 ml aliquots and stored at −70° C.
(§3) Membranes were thawed and re-homogenized in incubation buffer (glycylglycine 25 mM, pH 8.0). In a total volume of 500 μl, 2-10 μg protein was incubated with [^3H]raulwolscine (NET-722) (New England Nuclear, USA) (1 nM final concentration) with or without competitor for 60 min at 25° C. followed by rapid filtration over GF/B filter using a Filtermate196 harvester (Packard, Meriden, Conn.). Filters were rinsed extensively with ice-cold rinsing buffer (Tris-HCl 50 mM pH 7.4). Filter-bound radioactivity was determined by scintillation counting in a Topcount (Packard, Meriden, Conn.) and results were expressed as counts per minute (cpm). Non-specific binding was determined in the presence of 1 μM oxymetazoline for hα2A- and hα2B receptors and 1 μM spiroxatrine for hα2C receptors.
(§4) Data from assays in the presence of compound were calculated as a percentage of total binding measured in the absence of test compound. Inhibition curves, plotting percent of total binding versus the log value of the concentration of the test compound, were automatically generated, and sigmoidal inhibition curves were fitted using non-linear regression. The pIC50 values of test compounds were derived from individual curves.

[2] = target: T2, hα2A receptor (Homo sapiens, UniProt P08913); assay: Radioligand binding experiment for hα2A receptor ([3H]-raulwolscine, CHO cell membranes); conditions: [3H]-raulwolscine 1 nM, membranes of CHO cells transfected with human α2A receptor; read-out: pIC50 hα2A (converted)
T2 construct: expressed in transfected cells; host or cells: CHO cells
T2 sequence (P08913 1-465): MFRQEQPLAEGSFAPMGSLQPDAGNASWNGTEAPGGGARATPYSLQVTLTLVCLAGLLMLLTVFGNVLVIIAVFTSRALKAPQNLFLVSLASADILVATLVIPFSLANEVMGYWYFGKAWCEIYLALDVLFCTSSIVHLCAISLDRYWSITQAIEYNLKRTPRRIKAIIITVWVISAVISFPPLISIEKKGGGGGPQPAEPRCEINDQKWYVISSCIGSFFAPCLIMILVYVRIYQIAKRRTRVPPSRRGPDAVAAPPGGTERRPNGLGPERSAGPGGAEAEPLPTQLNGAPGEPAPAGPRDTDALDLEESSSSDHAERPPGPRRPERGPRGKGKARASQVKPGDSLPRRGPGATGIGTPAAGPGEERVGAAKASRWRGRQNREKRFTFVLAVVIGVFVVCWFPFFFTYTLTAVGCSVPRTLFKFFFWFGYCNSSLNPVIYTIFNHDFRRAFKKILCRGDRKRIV
Procedure: as §1, §2, §3, §4

[3] = target: T3, h5-HT transporter (Homo sapiens, UniProt P31645); assay: Radioligand binding experiment for 5-HT transporter ([3H]paroxetine, human platelet membranes); conditions: [3H]paroxetine 0.5 nM, read-out: pIC50 h5HTT (converted)
T3 construct: Human platelet membranes (Oceanix Biosciences Corporation, Hanover, Md., USA) were thawed; tissue Oceanix Biosciences Corporation; host or cells: human platelet membranes
Procedure: as §1
Human platelet membranes (Oceanix Biosciences Corporation, Hanover, Md., USA) were thawed, diluted in buffer (Tris-HCl 50 mM, 120 mM NaCl and 5 mM KCl) and quickly (max 3 s) homogenised with an Ultraturrax homogenizer. In a total volume of 250 μL, 50-100 μg protein was incubated with [^3H]paroxetine (NET-869) (New England Nuclear, USA) (0.5 nM final concentration) with or without competitor for 60 min at 25° C. Incubation was stopped by rapid filtration of the incubation mixture over GF/B filters, pre-wetted with 0.1% polyethyleneamine, using a Filtermate 196 harvester (Packard, Meriden, Conn.). Filters were rinsed extensively with ice-cold buffer and radioactivity on the filters was counted in a Topcount liquid scintillation counter (Packard, Meriden, Conn.). Data were expressed as cpm. Imipramine (at 1 μM final concentration) was used to determine the non-specific binding.
as §4

[4] = target: T4, hα2B receptor (Homo sapiens, UniProt P18089); assay: Radioligand binding experiment for hα2B receptor ([3H]-raulwolscine, CHO cell membranes); conditions: [3H]-raulwolscine 1 nM, membranes of CHO cells transfected with human α2B receptor; read-out: pIC50 hα2B (converted)
T4 construct: expressed in transfected cells; host or cells: CHO cells
T4 sequence (P18089 1-450): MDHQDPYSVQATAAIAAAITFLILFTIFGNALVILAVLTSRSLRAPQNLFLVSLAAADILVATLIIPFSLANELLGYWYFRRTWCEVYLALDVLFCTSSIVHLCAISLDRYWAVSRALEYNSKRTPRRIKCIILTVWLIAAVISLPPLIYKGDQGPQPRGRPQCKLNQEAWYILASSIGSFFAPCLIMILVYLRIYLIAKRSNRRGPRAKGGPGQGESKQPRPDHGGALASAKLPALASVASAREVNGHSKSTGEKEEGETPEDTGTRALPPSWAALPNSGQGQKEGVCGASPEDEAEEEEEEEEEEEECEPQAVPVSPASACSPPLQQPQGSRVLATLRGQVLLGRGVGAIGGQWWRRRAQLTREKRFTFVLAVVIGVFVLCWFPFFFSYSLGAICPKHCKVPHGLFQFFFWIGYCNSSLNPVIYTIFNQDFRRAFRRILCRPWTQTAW
Procedure: as §1, §2, §3, §4

T3 sequence (P31645 whole entry): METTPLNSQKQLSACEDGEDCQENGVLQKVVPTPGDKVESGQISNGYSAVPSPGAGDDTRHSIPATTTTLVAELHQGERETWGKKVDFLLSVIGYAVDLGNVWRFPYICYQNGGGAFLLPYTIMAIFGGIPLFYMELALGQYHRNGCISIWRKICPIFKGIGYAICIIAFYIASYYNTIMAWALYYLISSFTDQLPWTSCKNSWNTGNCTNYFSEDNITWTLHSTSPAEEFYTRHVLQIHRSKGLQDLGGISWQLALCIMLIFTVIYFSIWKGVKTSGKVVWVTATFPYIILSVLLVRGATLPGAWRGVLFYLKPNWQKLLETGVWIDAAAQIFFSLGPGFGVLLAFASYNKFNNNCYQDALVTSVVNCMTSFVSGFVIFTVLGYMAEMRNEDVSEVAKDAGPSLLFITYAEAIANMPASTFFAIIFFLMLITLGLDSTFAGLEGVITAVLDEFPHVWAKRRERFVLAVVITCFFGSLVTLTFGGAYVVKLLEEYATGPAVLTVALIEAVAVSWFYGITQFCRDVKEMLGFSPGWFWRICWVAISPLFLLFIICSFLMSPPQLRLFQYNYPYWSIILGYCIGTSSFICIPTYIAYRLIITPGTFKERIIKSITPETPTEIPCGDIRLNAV

| Compound | IC50 [1] [nM] | IC50 [2] [nM] | IC50 [3] [nM] | IC50 [4] [nM] |
| --- | --- | --- | --- | --- |
| COc1cc2c(cc1CN1CCOCC1)OCC1C2=NOC1CN1CCN(C/C(C)=C/c2ccccc2)CC1 (centres unmarked) [Compound 10, 8-Methoxy-3-[4-(2-methyl-3-phenyl-allyl)-piperazin-1-ylmethyl]-7-morpholin-4-ylmethyl-3a,4-dihydro-3H-chromeno[4,3-c]isoxazole] | 0.316 | 6.31 | 25.1 | 3.98 |
| COc1cc2c(cc1C)OCC1C2=NOC1CN1CCN(C/C(C)=C/c2ccccc2)CC1 (centres unmarked) [Compound 2, 8-Methoxy-7-methyl-3-[4-(2-methyl-3-phenyl-allyl)-piperazin-1-ylmethyl]-3a,4-dihydro-3H-chromeno[4,3-c]isoxazole] | 1.58 | 2 | 20 |  |
| CC(=Cc1ccccc1)CN1CCN(CC2ON=C3c4ccc(CN(C)CCO)cc4OCC32)CC1 (centres unmarked) [Compound 9, 2-(Methyl-{3-[4-(2-methyl-3-phenyl-allyl)-piperazin-1-ylmethyl]-3a,4-dihydro-3H -chromeno[4,3-c]isoxazol-7-ylmethyl}-amino)-ethanol] | 0.2 | 1.26 | 25.1 | 0.501 |
| Cc1ccc2c(c1)C1=NOC(CN3CCN(CC=Cc4ccccc4)CC3)C1CO2 (centres unmarked) [Compound 1, 8-Methyl-3-[4-(3-phenyl-allyl)-piperazin-1-ylmethyl]-3a,4-dihydro-3H-chromeno[4,3-c]isoxazole] | 15.8 | 3.98 | 39.8 | 10 |
| COc1cc2c(cc1CO)OCC1C2=NOC1CN1CCN(C/C(C)=C/c2ccccc2)CC1 (centres unmarked) [Compound 4, {8-Methoxy-3-[4-(2-methyl-3-phenyl-allyl)-piperazin-1-ylmethyl]-3a,4-dihydro-3H-chromeno[4,3-c]isoxazol-7-yl}-methanol] | 1.58 | 3.98 | 100 |  |
| COc1cc2c(cc1COc1ccccc1)OCC1C2=NOC1CN1CCN(C/C(C)=C/c2ccccc2)CC1 (centres unmarked) [Compound 8, 8-Methoxy-3-[4-(2-methyl-3-phenyl-allyl)-piperazin-1-ylmethyl]-7-phenoxymethyl-3a,4-dihydro-3H-chromeno[4,3-c]isoxazole] | 20 | 25.1 | 200 |  |
| COc1cc2c(cc1COC(C)=O)OCC1C2=NOC1CN1CCN(C/C(C)=C/c2ccccc2)CC1 (centres unmarked) [Compound 7, Acetic acid 8-methoxy-3-[4-(2-methyl-3-phenyl-allyl)-piperazin-1-ylmethyl]-3a,4-dihydro-3H-chromeno[4,3-c]isoxazol-7-ylmethyl ester] | 1.26 | 3.98 | 12.6 |  |

Other lines, results leading:

| IC50 [1] [nM] | IC50 [2] [nM] | IC50 [3] [nM] | IC50 [4] [nM] | Compound |
| --- | --- | --- | --- | --- |
| 0.794 | 5.01 |  |  | C/C(=C\c1ccccc1)CN1CCN(CC2ON=C3c4ccc(C=O)cc4OCC32)CC1 (centres unmarked) [Compound 19] |
| 12.6 | 15.8 | 158 |  | COc1cc2c(cc1-c1ccccc1)OCC1C2=NOC1CN1CCN(C/C(C)=C/c2ccccc2)CC1 (centres unmarked) [Compound 17, 8-Methoxy-3-[4-(2-methyl-3-phenyl-allyl)-piperazin-1-ylmethyl]-7-phenyl-3a,4-dihydro-3H-chromeno[4,3-c]isoxazole] |
| 5.01 | 39.8 | 3.98 | 12.6 | CCN(Cc1cc2c(cc1OC)C1=NOC(CN3CCN(CC(C)=Cc4ccc(F)cc4)CC3)C1CO2)C(C)C (centres unmarked) [Compound 24] |
| 1.58 | 5.01 | 5.01 |  | C/C(=C\c1ccccc1)CN1CCN(CC2ON=C3c4ccc(/C=N\O)cc4OCC32)CC1 (centres unmarked) [Compound 11, 3-[4-(2-Methyl-3-phenyl-allyl)-piperazin-1-ylmethyl]-3a,4-dihydro-3H -chromeno[4,3-c]isoxazole-7-carbaldehyde oxime] |
| 0.794 | 5.01 |  |  | CC(=O)NCc1ccc2c(c1)OCC1C2=NOC1CN1CCN(C/C(C)=C/c2ccccc2)CC1 (centres unmarked) [Compound 15, N-{3-[4-(2-Methyl-3-phenyl-allyl)-piperazin-1-ylmethyl]-3a,4-dihydro-3H -chromeno[4,3-c]isoxazol-7-ylmethyl}-acetamide] |
| 1.58 | 3.16 | 126 |  | CCNC(=O)c1cc2c(cc1OC)C1=NOC(CN3CCN(C/C(C)=C/c4ccccc4)CC3)C1CO2 (centres unmarked) [Compound 16, 8-Methoxy-3-[4-(2-methyl-3-phenyl-allyl)-piperazin-1-ylmethyl]-3a,4-dihydro-3H -chromeno[4,3-c]isoxazole-7-carboxylic acid ethylamide] |
| 3.98 | 6.31 | 100 |  | CON=Cc1ccc2c(c1)OCC1C2=NOC1CN1CCN(CC(C)=Cc2ccccc2)CC1 (centres unmarked) [Compound 12, 3-[4-(2-Methyl-3-phenyl-allyl)-piperazin-1-ylmethyl]-3a,4-dihydro-3H -chromeno[4,3-c]isoxazole-7-carbaldehyde O-methyl-oxime] |
